Experimental data reported in PubChem BioAssay (NCI).
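96-well plates; 48 h exposure; 5 concentrations. Endpoints by linear interpolation between flanking doses. Not reached: highest tested concentration assigned. Here, GI50 denotes the concentration required for 50% inhibition of growth. At the TGI there is no net growth.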

Assays:
Experiment in all cases: DTP human tumour cell line panel, 48 h
SF-295 CNS = test system: SF-295 CNS
UACC-62 melanoma = test system: UACC-62 melanoma
BT-549 breast = test system: BT-549 breast
OVCAR-8 ovarian = test system: OVCAR-8 ovarian
SF-539 CNS = test system: SF-539 CNS
TK-10 renal = test system: TK-10 renal
SK-MEL-5 melanoma = test system: SK-MEL-5 melanoma
HOP-92 NSCLC = test system: HOP-92 NSCLC
HCC-2998 colon = test system: HCC-2998 colon
SR leukemia = test system: SR leukemia

SMILES	TGI (SF-295 CNS) [µM]	TGI (UACC-62 melanoma) [µM]	TGI (BT-549 breast) [µM]	TGI (OVCAR-8 ovarian) [µM]	TGI (SF-539 CNS) [µM]	TGI (TK-10 renal) [µM]	TGI (SK-MEL-5 melanoma) [µM]	TGI (HOP-92 NSCLC) [µM]	TGI (HCC-2998 colon) [µM]	TGI (SR leukemia) [µM]	GI50 (HOP-92 NSCLC) [nM]	GI50 (SF-295 CNS) [µM]	GI50 (UACC-62 melanoma) [nM]	GI50 (BT-549 breast) [µM]	GI50 (OVCAR-8 ovarian) [µM]	GI50 (SR leukemia) [µM]	GI50 (SF-539 CNS) [nM]	GI50 (TK-10 renal) [nM]	GI50 (SK-MEL-5 melanoma) [µM]
COCN1C(=O)[C@@H]2C[C@@H](OC/C=C/CBr)CN2C(=O)c2ccccc21	46.5	71.5	> 100	34	40.8	49.7	34.8												
COc1c(-c2ccc3c(c2)OCO3)oc2cc3c(c(OC)c2c1=O)OCO3	61.8	64.1	46.6	42.4	34.8	80.4	35.5	79.6	87.4										
COc1ccccc1C1C(Cl)C(=O)N1NC(=O)Cc1ccccc1 (centres undefined)	> 100	> 100		> 100		> 100	> 100		> 100	> 100									
COc1ccc2c(c1)CCC1C2CCC2(C)C1CC[C@@]2(O)CNC(=O)/C=C/c1ccc(O)c(O)c1 (some centres undefined)	> 100	5.63	> 100	> 100	6.75	9.81	9.6	14.7		59.7	2230	3.54	2240	3.95	4.13	20.1	2080	2520	3.41
CC(C)(C)C(=O)C(C#N)C(=O)C(C)(C)C	> 100			> 100	> 100	> 100	> 100	> 100	> 100	50									
COc1nc(NC2OCC(OC(C)=O)C(OC(C)=O)C2OC(C)=O)c(N=C(C)C(C)=O)c(=O)n1C (centres undefined)	> 100			> 100	> 100	> 100	> 100	> 100		> 100									
COc1ccc(N=Nc2ccc3oc(=O)c(C(=O)Nc4ccc(OC)cc4)cc3c2)cc1	51.9		39	37.8	22.8	> 100	33.3	50.1	45.3	87.5									
CN1C(=N\S(=O)(=O)c2ccc(Cl)cc2)/C(=N/N=P(c2ccccc2)(c2ccccc2)c2ccccc2)c2ccccc21	> 100	> 100		> 100	> 100	> 100	> 100		> 100	> 100									
CC(C)(Oc1ccc(C2C[C@H]2Cl)cc1)C(=O)O (some centres undefined)	> 100	> 100	> 100		> 100	> 100	> 100	> 100		> 100									
CC(C)Oc1c(O)c2c3c(oc(=O)n3C=CC2c2ccccc2F)c1OC(C)C (centres undefined)	78.1	> 100		> 100	52.6	> 100	34.2	> 100		46.1									
Cc1ccc(-n2cc(-c3ccc(Cl)cc3)c3c(NNC(=S)NCc4ccccc4)ncnc32)cc1	55.4	64.8	83	69.3	30.7	68.2	19.5	66		21.5									
O=C(CSCC(=O)N/N=C\c1cc(Br)cc(Br)c1O)N/N=C\c1cc(Br)cc(Br)c1O	> 100	39.7	> 100	68	78.8	71.8	92.2	79		42									
C[N+](C)(C)CC(=O)N/N=C(\C(=O)Nc1ccc(Cl)cc1)C1C(=O)N(c2ccccc2)N=C1N (centres undefined)		> 100		> 100	> 100	> 100	> 100	> 100	> 100										
COc1ccc(/C=N/NC(=O)c2ccccc2Nc2ccccc2C(=O)N/N=C/c2ccc(OC)c(OC)c2)cc1OC	> 100	> 100	> 100	> 100		> 100	> 100	> 100	> 100	> 100									
O=C(Cl)c1cc([N+](=O)[O-])cc([N+](=O)[O-])c1	> 100	> 100			> 100	> 100	> 100	> 100	> 100	> 100									
O=C(CCc1nnc2s/c(=C\c3ccc(Cl)cc3Cl)c(=O)n12)Nc1cc(Cl)c(Cl)cc1Cl	> 100	> 100		> 100	> 100	> 100	> 100	> 100	> 100	> 100		> 100	> 100000		> 100	> 100	> 100000		> 100
Nc1nc(NC(=O)C2=NS(=O)(=O)c3cc(S(N)(=O)=O)c(Cl)cc3N2)n[nH]1	> 100	> 100			> 100	> 100	> 100	> 100	> 100	> 100									
CCC1(CC)C(=O)N(C(=O)c2ccc(Cl)cc2)N(C(=O)c2ccccc2Cl)C1=O	> 100	> 100	> 100	> 100		> 100	> 100		> 100	> 100									
Cc1c2cccc-2c(N(C)C)cc2c1[nH]c1ccccc12	25.3		8.19	10.3	4.31	13.2	18.5	3.54		3.98									
CC1=C2CC3=C(C)C(=O)O[C@H]3C[C@@H](C)[C@@H]2CC1	> 100	> 100	> 100	> 100		> 100	> 100	> 100	> 100	> 100									
CC(=S)NC1C(Oc2ccc3c(C)cc(=O)oc3c2)OC(CO)C(O)C1O (centres undefined)	> 100	> 100	> 100	> 100	> 100	> 100	> 100	> 100		> 100									
CC(C)(C)C(=O)Cc1cc2c(cc1C(=O)O)S(=O)(=O)NC(C(C)(C)C)=C2	> 100	> 100		> 100		> 100		> 100		> 100									
